According to paper PMC8047729, “Identification of a nanomolar affinity α-synuclein fibril imaging probe by ultra-high throughput in silico screening” (Chemical Science, 2020):
“Also recorded” adds a separate entry of the source.

Key:
[1] = test system: A53T and control mouse brain sections; assay type: binding
[2] = molecular target: T1, αS fibrils (Homo sapiens, UniProt P37840)
Description: (§1) αS (50 nM) or Aβ42 (100 nM) fibrils were incubated for 1 h at 37 °C with increasing concentrations of [^125I]61 in 50 mM Tris–HCl, pH 7.4, in a total volume of 150 μL. Nonspecific binding was determined in a duplicate set of binding reactions containing 2 μM non-radioactive 61. After incubation, bound and free radioligand were separated by vacuum filtration through Whatman GF/C filters in a 24-sample harvester system, followed by washing with buffer containing 10 mM Tris–HCl (pH 7.4) and 150 mM NaCl. Filters containing the bound ligand were counted immediately on 2470 WIZARD Automatic Gamma Counter. All data points were collected in triplicate. The equilibrium dissociation constant (Kd) and the maximal number of binding sites (Bmax) were determined by fitting the data to the equation Y = Bmax × X/(Kd + X), using GraphPad Prism software.
(§2) Saturation binding assay. αS (50 nM) or Ab42 (100 nM) fibrils were incubated for 1 h at 37 °C
(§3) with increasing concentrations of [125I]61 in 50 mM Tris-HCl, pH 7.4, in a total volume of 150
(§4) µL. Nonspecific binding was determined in a duplicate set of binding reactions containing 2 µM
unlabeled 61. To measure the amount of radioligand binding to the filter paper, fibrils were
replaced with equal volume of buffer in a duplicate set of binding reactions. After incubation,
bound and free radioligand were separated by vacuum filtration through Whatman GF/C filters
(Brandel) in a 24-sample harvester system (Brandel), followed by washing with buffer containing
10 mM Tris-HCl (pH 7.4) and 150 mM NaCl. Filters containing the bound ligand were counted
immediately on 2470 WIZARD Automatic Gamma Counter (Perkin Elmer). All data points were
acquired in triplicate. The equilibrium dissociation constant (Kd) and the maximal number of
binding sites (Bmax) were determined by globally fitting the total binding and nonspecific binding
Y = Bmax*[X/(Kd+X)] + NS*X (S2)
where X is the concentration of ligand ([125I]61) and NS is nonspecific binding, using GraphPad
Prism software (San Diego, CA, USA).

[3] = molecular target: Aβ42 fibrils (Homo sapiens, UniProt P05067)
Description: as §1, §2, §3, §4
unlabeled 61. To measure the amount of radioligand binding to the filter paper, fibrils were […]
10 mM Tris-HCl (pH 7.4) and 150 mM NaCl. Filters containing the bound ligand were counted […]
binding sites (Bmax) were determined by globally fitting the total binding and nonspecific binding […]

[4] = molecular target: αS fibrils in mouse brain lysate (Homo sapiens, UniProt P37840); assay: Photo-crosslinking and click labeling in mouse brain lysate; assay type: binding; details: 50 μM CLX2, 50 μM αS fibrils, 10 mg/ml lysate
Source text: Photo-crosslinking in Mouse Brain Lysate
Total Mouse Brain Protein Preparation. Mice were anesthetized using isoflurane gas in a closed chamber (AKORN, Lake Forest, IL, USA) followed by cervical dislocation. Brains were quickly dissected and snap-frozen in dry ice. Mouse brains were mechanically homogenized in five -fold excess (w/w) RIPA buffer (Thermo Fisher Scientific; Waltham, MA, USA ) using a ground glass tissue plunger. Homogenized sample was then subjected to probe sonication (Qsonica, Newtown, CT, USA) on ice using a microtip, at an amplitude of 50% at intervals of 10 s on 20 s off, for a total process-time (on-time) of 5 minutes. Crude lysate was then clarified by centrifugation at 10,000xg at 4 °C for 60 min. […] The lysate total protein concentration was then determined using the Bio-Rad detergent compatible (DC) protein assay […]
samples (50 µM final concentration), followed by “click -mix” (50 µM copper sulfate, 100 µM THPTA final concentration), sodium ascorbate (200 µM final concentration), and PBS to achieve a final volume of 200 µL. […] Samples were then analyzed via SDS-PAGE using a 4-12% Bis-Tris pre-cast gel (NuPAGE, Thermo Fisher Scientific). αS monomer labeled with BODIPY-FL maleimide (prepared as previously described13) was used as a control. […]

[5] = molecular target: T1, αS fibrils; assay: Photo-crosslinking assay with MALDI-MS of tryptic digest; assay type: binding; details: 100 μM crosslinker, 365 nm irradiation, trypsin digest MALDI-MS
Description: Photo-crosslinking assay. Aggregations of αS prepared as described above were transferred to a clear glass vial to assist in photo -crosslinking, and compounds ClX1, ClX2, or DMSO (as a vehicle control) were delivered to their respective vials (100 μM final concentrations). The resulting fibril-crosslinker or fibril-DMSO mixture was incubated for 1 h at 37 °C, and thereafter irradiated with long wave UV from a TLC lamp (365 nm) for 1 h. The irradiated fibrils were then boiled in SDS (25 mM final concentration), and subjected to CHCl3/MeOH precipitation to remove excess detergent and buffer as previously described.2 The translucent brown protein pellet was then resuspended in 40 μL of sterilized, Milli-Q water. At this point, the whole protein sample was subjected to MALDI-MS analuysis by spotting 1 μL of sample in 1μL of sinapic acid matrix, prepared as a saturated solution in a 50:50 mixture of ACN:H2O with 0.1% TFA. The remaining sample was digested using trypsin (Promega Corporation) at 37 °C overnight (50 mM NH4CO3, 1 mM CaCl2, 1:50-1:100 protein:trypsin ratio). The resulting tryptic peptide mixture was diluted 1:10 in sterile water with 0.1% TFA, and analyzed via MALDI-MS by spotting 1 μL of sample in 1 μL of CHCA matrix or DHB matrix, prepared as saturated solutions in a 50:50 mixture of ACN:H2O with 0.1% TFA. […]

Sequence of Aβ42 fibrils (P05067 672-713 limits assumed): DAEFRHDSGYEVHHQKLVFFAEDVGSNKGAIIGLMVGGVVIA

SMILES | Autoradiography signal in whole brain sections [1] | Kd [2] | Levels of non-specific binding ([2]; saturation binding experiments) | Kd [3] | Binding by crosslinking and fluorescent azide labeling in mouse brain lysate [4] | Crosslinked site / peptide fragment on αS fibrils [5]
Cc1ccc(OCC(=O)Nc2cc(-c3ccc([125I])cc3)no2)cc1C [[^125I]61] | increased signal in A53T mouse brain in αS-rich regions compared with the control | 1.06 nM | relatively high | 4.56 nM | – | –
C#CCCC1(CCOc2ccc(OCC(=O)Nc3cc(-c4ccc(I)cc4)no3)cc2)N=N1 [ClX2] | – | – | – | – | binding to αS fibrils, but also to many other proteins in mouse brain lysate | residues 22-34; also recorded: Site 2
